Broadly, the Km is the substrate concentration at which the rate is half of its maximum. The term IC50 denotes the midpoint of a concentration-inhibition curve.

Several values for one entry are separate records, joined by “and”; a condition that tells them apart may be missing. Equal values may be shown once. Entries after “also recorded” stand apart in the source; their conditions may differ.

Test [1] has as its system T1, SCF^Skp2/Cks1.
T1 construct: 6His-Skp2-(isoform 1, hu,FL), GST-Skp1-; (hu,FL), 6His-Cul1-(hu,FL), UT-Rbx1-; 6His-Cks1-(hu,FL); 6His (N); GST (N); made in house
Kind of test: 'Live' SCF^Skp2/Cks1 assay (E3 assay, p27 ubiquitination), ECL. It counts as biochemical, human. The settings on record: for follow up IC50 (in words): titration from 300 μM to 10 nM. Here is the method:
FIG. 23 (a): ‘Live’ SCF^Skp2/Cks1 Assay—ECL ubiquitin titration. Used 60 minute incubation; 25 nM c-Myc p27; anti c-Myc capture for p27 (Millipore 05-274, 1/500); 5 nM E1; 1 μM E2 (HA); 25 nM E3/Cks1; 5 to 0.08 μM Ub; 1000 to 15 μM ATP; streptavidin sulfo tag (MSD, R32AD-1, 1 μg/ml). Hyperbolic increase in signal with [Ub]. Optimum signal after 2 μM ubiquitin. Largely […] of ATP concentration. […] Final assay concentration is set at 2 μM.
FIG. 23 (b): ‘Live’ SCF^Skp2/Cks1 Assay—ECL ATP titration. Used 60 minute incubation; 25 nM c-Myc p27; anti c-Myc capture for p27 (Millipore 05-274, 1/500); 5 nM E1; 1 μM E2 (HA); 25 nM E3/Cks1; 2 μM Ub; 1000 to 7 μM ATP; streptavidin sulfo tag (MSD, R32AD-1, 1 μg/ml). Initial experiments indicated a high signal which was independent of ATP concentration (lowest [ATP] of 21 μM)—indicative of tight binding. […] Km estimated at 4 μM. Final assay concentration set at 100 μM.
FIG. 30 (a): ‘Live’ SCF^Skp2/Cks1 Assay—ECL Inhibitor study—PYR-41 (E1 inhibitor).
FIG. 32: ‘Live’ SCF^Skp2/Cks1 Assay—ECL R140 Kinase inhibitor panel. Used 60 minute incubation; 25 nM c-Myc p27; anti-c-Myc capture for p27 (Millipore 05-274, 1/500); 5 nM E1; 1 μM E2 (HA); 25 nM E3 tetramer; 25 nM Cks1; 2 μM Ub; 100 μM ATP; streptavidin sulfo tag (MSD, R32AD-1, 1 μg/ml).
FIG. 34: ‘Live’ SCF^Skp2/Cks1 Assay—ECL follow up IC50s. Used 60 minute incubation; 25 nM c-Myc p27; anti c-Myc capture for p27 (Millipore 05-274, 1/500); 5 nM E1; 1 μM E2 (HA); 25 nM E3 tetramer; 25 nM Cks1; 2 μM Ub; 100 μM ATP; streptavidin sulfo tag (MSD, R32AD-1, 1 μg/ml). Titration of PYR41 (Calbiochem 662105) from 300 μM to 10 nM (control). Titration of Rottlerin, EGCG, AG538 and K252c from 300 μM to 10 nM.
(§1) Each of the assays in the p27 ubiquitination cascade (E1, E2 and E3) were tested against the E1 inhibitor PYR-41. No pre-charging of either the E1 or E2 was carried out prior to the introduction of the compound although in the E3 assay, p27 phosphorylation by CDK2/Cyclin E was carried out in the absence of inhibitor.
In order to test the feasibility of screening the E3 assay against a range of inhibitors, the assay was tested against a panel of 41 inhibitors (40 known kinase inhibitors and PYR-41) (FIG. 31). […] Using the same assay conditions, the E3 assay was tested against these inhibitors (FIG. 33).

The target of test [2] is T2, Ube1 (Homo sapiens, UniProt P22314).
T2 construct: 6His-UBE1-(hu,FL) (E1); made in house
T2 sequence (P22314 1-1058): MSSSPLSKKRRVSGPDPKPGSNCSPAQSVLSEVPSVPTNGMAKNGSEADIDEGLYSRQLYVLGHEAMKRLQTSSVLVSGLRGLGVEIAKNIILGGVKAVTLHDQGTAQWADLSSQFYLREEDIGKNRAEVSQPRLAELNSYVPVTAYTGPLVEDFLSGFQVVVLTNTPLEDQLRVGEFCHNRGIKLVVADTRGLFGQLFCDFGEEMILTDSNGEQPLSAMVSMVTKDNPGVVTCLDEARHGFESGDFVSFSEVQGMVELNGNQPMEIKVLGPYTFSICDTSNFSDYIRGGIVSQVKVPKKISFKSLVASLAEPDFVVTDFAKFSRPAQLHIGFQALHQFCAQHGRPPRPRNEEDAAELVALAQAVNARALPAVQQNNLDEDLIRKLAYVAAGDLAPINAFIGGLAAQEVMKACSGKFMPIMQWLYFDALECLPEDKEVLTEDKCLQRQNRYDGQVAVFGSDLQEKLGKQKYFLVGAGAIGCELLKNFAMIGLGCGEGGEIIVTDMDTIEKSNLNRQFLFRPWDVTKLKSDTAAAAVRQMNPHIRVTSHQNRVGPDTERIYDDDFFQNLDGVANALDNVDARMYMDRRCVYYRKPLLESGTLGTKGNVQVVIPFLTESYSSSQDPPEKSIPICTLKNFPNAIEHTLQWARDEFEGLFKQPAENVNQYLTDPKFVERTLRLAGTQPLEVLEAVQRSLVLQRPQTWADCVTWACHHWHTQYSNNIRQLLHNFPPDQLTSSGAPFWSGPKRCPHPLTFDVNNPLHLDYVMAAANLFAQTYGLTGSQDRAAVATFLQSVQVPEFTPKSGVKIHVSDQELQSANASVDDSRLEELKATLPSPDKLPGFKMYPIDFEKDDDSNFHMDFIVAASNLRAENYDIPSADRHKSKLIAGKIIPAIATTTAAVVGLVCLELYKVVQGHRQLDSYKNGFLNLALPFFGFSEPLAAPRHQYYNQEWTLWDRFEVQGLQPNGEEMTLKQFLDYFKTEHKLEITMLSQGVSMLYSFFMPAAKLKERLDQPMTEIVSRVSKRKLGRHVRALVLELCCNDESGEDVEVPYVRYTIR
Nature of the test: E1 assay, HTRF. The test is classed as biochemical. The settings on record: 1 μM E1, 2 μM Ub, Anti-6His-K, 30 minutes pre-incubation. The protocol: (§2) FIG. 18: Ube1 Inhibitor study PYR41 in E1 and E1+E2 assay—HTRF. Inhibitor study: 30 minutes pre-incubation with PYR-41. Assays were immediately diluted followed by addition of 2 mM ATP.
(§3) Using conditions identified previously, an IC50 determination for Pyr-41 using the E1 and E1/E2 assays was performed. […] This may be a reflection of the higher enzyme concentrations used in the HTRF assay step (FIG. 18).
Background: In TR-FRET formats the signal depends on donor and acceptor labels being close together.

The target of test [3] is T3, UbCH3 (Homo sapiens, UniProt P49427).
T3 construct: HA,6His-UbcH3-(hu,FL) (E2); made in house
Nature of the test: UbCH3 (E2) assay, ECL (anti-HA capture). The settings on record: 5 nM E1, 50 nM E2, 2 μM Ub, 100 μM ATP, 60 minute incubation. The test is classed as biochemical. The protocol: (§4) FIG. 30 (b): E1/E2 Assay—ECL Inhibitor study—PYR-41. Used 60 minute incubation; 2 μM Ub; 100 μM ATP. For E1 assay (Anti-His capture) 50 nM E1. For E2 assay (Anti HA-capture) 5 nM E1; 50 nM E2. Used streptavidin sulfo tag (MSD R32AD-1, 1 μg/ml); titration of PYR41 (Calbiochem 662105) from 300 μM to 10 nM.
as §1

For test [4], the target named is T2, Ube1. Nature of the test: Ube1 (E1) assay, ECL. The settings on record: 50 nM E1, 2 μM Ub. The test is classed as biochemical. The protocol:
FIG. 11: Ube1 inhibitor study PYR41— ECL. Inhibitor study. Titration of PYR41 (Calbiochem 662105) from 300 μM to 10 nM. Used anti-His capture for E1 (Millipore, 16-255, 1/1000 dil); 50 nM E1; 2 μM Ub; 500 μM ATP; 30-minute pre-incubation with cpd.; 30 minute reaction time.
as §4
For the IC50 determination of Pyr-41, the data shown is that from a 30 minute pre-incubation and a 30 minute assay. The assay was performed in a separate plate and then transferred. For information purposes, another set of assays were performed within the capture/detect plate and stopped immediately by washing off the assay solution, or washed after 60 min. It was interesting to note that even with the wash at time 0 an IC50 for the compound that was in line with the data shown could still be determined.
as §1

In test [5] the target is T4, E1 (Homo sapiens, UniProt P22314).
T4 construct: literature BiogenNova / Calbiochem (quoted value)
T4 sequence (P22314 1-1058): T2 sequence (P22314 1-1058)
To be noted: cited from earlier work.

The target in test [6] is T5, Ube1/UbCH3 (Homo sapiens, UniProt P22314).
T5 construct: 6His-UBE1-(hu,FL) (E1); made in house
T5 sequence (P22314 1-1058): T2 sequence (P22314 1-1058)
Nature of the test: E1+E2 (Ube1+UbCH3) assay, HTRF. The settings on record: 100 nM E1, 1 μM E2, 400 nM Ub. It counts as biochemical. The protocol:
as §2
BiogenNova quote IC50 value as ˜5 μM.
as §3

Setting [7] is: ECL E3 assay, kinase inhibitor panel screen.

T1 sequence (Q13309 whole entry, canonical isoform): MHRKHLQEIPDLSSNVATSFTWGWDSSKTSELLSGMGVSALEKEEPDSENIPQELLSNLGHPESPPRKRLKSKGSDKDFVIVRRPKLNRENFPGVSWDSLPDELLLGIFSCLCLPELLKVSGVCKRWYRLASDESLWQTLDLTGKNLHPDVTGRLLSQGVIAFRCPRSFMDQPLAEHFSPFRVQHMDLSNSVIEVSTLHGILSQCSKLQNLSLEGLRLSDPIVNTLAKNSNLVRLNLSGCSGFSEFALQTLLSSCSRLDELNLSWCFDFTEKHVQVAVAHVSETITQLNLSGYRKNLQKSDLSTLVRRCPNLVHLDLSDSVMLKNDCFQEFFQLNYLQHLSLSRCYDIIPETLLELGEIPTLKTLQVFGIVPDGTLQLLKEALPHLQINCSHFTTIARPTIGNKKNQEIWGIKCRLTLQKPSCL
T1 sequence (P63208 1-160 isoform P63208-2, further chain): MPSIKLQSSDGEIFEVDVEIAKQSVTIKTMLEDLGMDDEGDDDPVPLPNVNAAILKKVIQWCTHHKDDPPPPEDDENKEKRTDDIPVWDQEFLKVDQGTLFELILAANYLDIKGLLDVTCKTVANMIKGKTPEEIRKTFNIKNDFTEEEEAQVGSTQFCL
T1 sequence (Q13616 whole entry, further chain, canonical isoform): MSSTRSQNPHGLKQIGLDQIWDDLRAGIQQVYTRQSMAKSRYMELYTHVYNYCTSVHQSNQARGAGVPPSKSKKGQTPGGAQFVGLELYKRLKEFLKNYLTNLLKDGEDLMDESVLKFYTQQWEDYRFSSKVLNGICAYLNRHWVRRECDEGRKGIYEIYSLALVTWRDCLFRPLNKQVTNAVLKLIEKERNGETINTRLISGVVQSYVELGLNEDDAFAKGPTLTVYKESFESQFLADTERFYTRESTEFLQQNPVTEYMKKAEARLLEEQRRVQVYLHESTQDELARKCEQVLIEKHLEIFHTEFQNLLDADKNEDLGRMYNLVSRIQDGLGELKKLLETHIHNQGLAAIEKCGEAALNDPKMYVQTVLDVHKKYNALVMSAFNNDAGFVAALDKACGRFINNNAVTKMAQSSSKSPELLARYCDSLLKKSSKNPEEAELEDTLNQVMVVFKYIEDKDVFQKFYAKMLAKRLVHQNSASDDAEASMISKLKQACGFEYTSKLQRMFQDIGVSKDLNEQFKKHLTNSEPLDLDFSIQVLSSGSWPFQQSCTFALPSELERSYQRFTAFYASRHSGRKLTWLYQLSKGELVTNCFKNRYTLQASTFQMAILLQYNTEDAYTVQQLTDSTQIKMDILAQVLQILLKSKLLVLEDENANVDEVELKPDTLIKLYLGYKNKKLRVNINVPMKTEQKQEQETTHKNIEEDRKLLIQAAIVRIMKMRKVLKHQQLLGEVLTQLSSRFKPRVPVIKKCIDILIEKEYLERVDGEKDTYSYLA
T1 sequence (P62877 whole entry, further chain, canonical isoform): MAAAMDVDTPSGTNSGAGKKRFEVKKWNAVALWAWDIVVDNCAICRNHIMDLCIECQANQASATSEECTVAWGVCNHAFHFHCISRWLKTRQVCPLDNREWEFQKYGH
T1 sequence (P61024 whole entry, further chain, canonical isoform): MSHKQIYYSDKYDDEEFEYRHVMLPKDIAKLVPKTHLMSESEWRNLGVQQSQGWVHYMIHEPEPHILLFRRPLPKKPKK
T3 sequence (P49427 whole entry, one chain of several): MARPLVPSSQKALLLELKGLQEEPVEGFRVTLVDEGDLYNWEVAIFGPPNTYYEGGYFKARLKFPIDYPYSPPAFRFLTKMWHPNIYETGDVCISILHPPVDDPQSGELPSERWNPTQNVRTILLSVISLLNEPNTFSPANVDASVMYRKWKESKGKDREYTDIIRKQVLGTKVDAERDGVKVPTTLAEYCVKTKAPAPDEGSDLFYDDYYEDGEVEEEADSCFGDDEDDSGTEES

As to `N#C/C(=C\c1ccc(O)c(O)c1)C(=O)c1ccc(O)c(O)c1` [AG538], the “inhibition in kinase inhibitor panel (in words)” value (“inhibition … (in words)” below) in test [1] (setting [7]) is “show up as inhibitors”.
In the case of `Nc1ncnc2c1ncn2[C@@H]1O[C@H](COP(=O)(O)OP(=O)(O)OP(=O)(O)O)[C@@H](O)[C@H]1O` [ATP, Adenosine-5′-Triphosphate], the Km in test [1] (ECL E3 assay, ATP titration 1000 to 7 μM, 2 μM Ub, read-out: apparent Km for ATP) is roughly 4 µM.
As for `O=C(O[C@@H]1Cc2c(O)cc(O)cc2O[C@@H]1c1cc(O)c(O)c(O)c1)c1cc(O)c(O)c(O)c1` [EGCG], the “inhibition … (in words)” value in test [1] (setting [7]) is recorded as “show up as inhibitors; also recorded: moderate amounts of inhibition”. The “follow up IC50 (in words)” value in test [1] (ECL E3 assay) is “in the μM range”.
Taken in the same sequence, the figures for `O=C1NCc2c1c1c3ccccc3[nH]c1c1[nH]c3ccccc3c21` [K252c] were “show up as inhibitors; also recorded: moderate amounts of inhibition” and “false positive result”.
Consider `CCOC(=O)c1ccc(N2NC(=O)/C(=C/c3ccc([N+](=O)[O-])o3)C2=O)cc1` [PYR-41], for which the IC50 was 43 µM in test [2]; 3.2 µM in test [3]; 1.3 µM in test [4] (500 μM ATP, 30 minute pre-incubation with cpd, 30 minute reaction time); 7.8 µM in test [4] (anti-His capture, 100 μM ATP, 60 minute incubation); roughly 5 µM in test [5] (quoted by BiogenNova / Calbiochem, vs. E1); 55 µM and 84 µM in test [1] (ECL, 25 nM c-Myc p27, 5 nM E1, 1 μM E2, 25 nM E3 tetramer, 25 nM Cks1, 2 μM Ub, 100 μM ATP, 60 minute incubation). For the same molecule, the half-inhibitory concentration (IC50) in test [6] (Anti-6His-K detection) was determined as 16 µM; in test [6] (Anti-FLAG-K detection), 20 µM. In addition, the “reported values for the inhibitor (in words)” value in test [5] (literature) is listed as “low micromolar range”. Further, in test [1] (setting [7]), the “inhibition in panel of 41 inhibitors” value was greater than 80%.
Consider `CC(=O)c1c(O)c(C)c(O)c(Cc2c(O)c3c(c(C(=O)/C=C/c4ccccc4)c2O)OC(C)(C)C=C3)c1O` [Rottlerin], for which the “inhibition … (in words)” value in test [1] (setting [7]) is listed as “show up as inhibitors; also recorded: moderate amounts of inhibition”. Moreover, the “follow up IC50 (in words)” value in test [1] (ECL E3 assay) was “in the μM range”.

The values above are taken from patent US10024865B2, “Ubiquitination assay” (ITI Scotland Limited, priority 2010, dated 2018).
